Where a SMILES comes first, the peptide text is derived from it. Bridges are numbered along the chain shown (N, C = ends).
Key:
Assay type in all cases: cell-based
WM164 cells [1] = test: Cytotoxicity, resazurin assay
HT144 cells [2] = test: Cytotoxicity, resazurin assay; conditions: HT144, cTI 0.5 to 3 µM over 100 days
WM164 cells [3] = test: Real-time cell analysis, xCELLigence impedance
HT144 cells [4] = test: Real-time cell analysis, xCELLigence impedance
WM164 cells [5] = test: Co-treatment of dabrafenib with peptide, resazurin assay; conditions: drug-naïve WM164, drug (50 nM) or peptide (at IC50) added alone, 72 h
WM164 cells [6] = test: Lipidome analysis, shotgun tandem MS of lipid extracts
WM164 cells [7] = test: Microscopy during long-term treatment; conditions: WM164, after 2 µM cTI for one week
HT144 cells [8] = test: Microscopy during long-term treatment; conditions: HT144, treatment with cTI for 100 days

## CC[C@H](C)[C@@H]1NC(=O)CNC(=O)[C@H](CCCNC(=N)N)NC(=O)[C@H](Cc2ccc(O)cc2)NC(=O)[C@@H]2CSSC[C@H](NC1=O)C(=O)N[C@@H](Cc1ccc(O)cc1)C(=O)N[C@@H](CCCNC(=N)N)C(=O)N[C@@H](CCCNC(=N)N)C(=O)N[C@H]1CSSC[C@H](NC(=O)[C@H](Cc3c[nH]c4ccccc34)NC(=O)[C@H](CCCCN)NC(=O)CNC(=O)[C@H](CCCNC(=N)N)NC1=O)C(=O)N[C@@H](Cc1ccccc1)C(=O)N[C@@H](CCCNC(=N)N)C(=O)N[C@@H](C(C)C)C(=O)N2 [cTI, cyclic tachyplesin I] (cyclo(CFRVCYRGICYRRCRGKW); disulfide 1-14, 5-10)
WM164 cells [1]; 5 x10^3 WM164 cells seeded for 24 h, 3 µM peptide, resazurin
  cell death: 50%
WM164 cells [1]; WM164, cTI 0.5 to 3 µM over 100 days
  development of resistance: did not develop resistance
HT144 cells [2]
  development of resistance: did not develop resistance
WM164 cells [3]; 5 µM, 24 h
  reduction in impedance signal: ~50%
WM164 cells [3]; 10 µM
  time to drop in the impedance to ∼0: 2 to 3 h
WM164 cells [3]; 10^4 WM164 cells seeded for 24 h, 5 µM
  cell proliferation: ~50%
HT144 cells [4]; 5 µM, 24 h
  reduction in impedance signal: ~50%
HT144 cells [4]; 10 µM
  time to drop in the impedance to ∼0: 2 to 3 h
WM164 cells [5]
  cell death: ~ 50%
WM164 cells [6]; WM164, 1µM cTI_15d
  PC 30:0, Mean nmol/M cells: 0.78 nmol/M cells
  PC 30:1, Mean nmol/M cells: 0.42 nmol/M cells
  PC 32:0, Mean nmol/M cells: 0.50 nmol/M cells
  PC 32:1, Mean nmol/M cells: 3.15 nmol/M cells
  PC 32:2, Mean nmol/M cells: 0.38 nmol/M cells
  PC 34:1, Mean nmol/M cells: 5.61 nmol/M cells
  PC 34:2, Mean nmol/M cells: 2.35 nmol/M cells
  PC 36:1, Mean nmol/M cells: 0.86 nmol/M cells
  PC 36:2, Mean nmol/M cells: 3.56 nmol/M cells
  PE 32:1, Mean nmol/M cells: 0.21 nmol/M cells
  PE 34:1, Mean nmol/M cells: 0.89 nmol/M cells
  PE 34:2, Mean nmol/M cells: 0.71 nmol/M cells
  PE 36:1, Mean nmol/M cells: 0.75 nmol/M cells
  PE 36:2, Mean nmol/M cells: 1.48 nmol/M cells
  PE 36:3, Mean nmol/M cells: 0.19 nmol/M cells
  PE 38:4, Mean nmol/M cells: 0.27 nmol/M cells
  PE 38:5, Mean nmol/M cells: 0.26 nmol/M cells
  PE 40:6, Mean nmol/M cells: 0.16 nmol/M cells
  PI 34:1, Mean nmol/M cells: 0.42 nmol/M cells
  PI 34:2, Mean nmol/M cells: 0.29 nmol/M cells
  PI 36:1, Mean nmol/M cells: 1.12 nmol/M cells
  PI 36:2, Mean nmol/M cells: 1.12 nmol/M cells
  PI 38:2, Mean nmol/M cells: 0.19 nmol/M cells
  PI 38:3, Mean nmol/M cells: 0.34 nmol/M cells
  PI 38:4, Mean nmol/M cells: 0.64 nmol/M cells
  PI 38:5, Mean nmol/M cells: 0.22 nmol/M cells
WM164 cells [6]; WM164, 2µM cTI_60d
  PC 30:0, Mean nmol/M cells: 0.51 nmol/M cells
  PC 30:1, Mean nmol/M cells: 0.27 nmol/M cells
  PC 32:0, Mean nmol/M cells: 0.34 nmol/M cells
  PC 32:1, Mean nmol/M cells: 1.93 nmol/M cells
  PC 32:2, Mean nmol/M cells: 0.26 nmol/M cells
  PC 34:1, Mean nmol/M cells: 4.19 nmol/M cells
  PC 34:2, Mean nmol/M cells: 1.64 nmol/M cells
  PC 36:1, Mean nmol/M cells: 0.82 nmol/M cells
  PC 36:2, Mean nmol/M cells: 2.77 nmol/M cells
  PE 32:1, Mean nmol/M cells: 0.16 nmol/M cells
  PE 34:1, Mean nmol/M cells: 0.68 nmol/M cells
  PE 34:2, Mean nmol/M cells: 0.71 nmol/M cells
  PE 36:1, Mean nmol/M cells: 0.78 nmol/M cells
  PE 36:2, Mean nmol/M cells: 1.83 nmol/M cells
  PE 36:3, Mean nmol/M cells: 0.19 nmol/M cells
  PE 38:4, Mean nmol/M cells: 0.28 nmol/M cells
  PE 38:5, Mean nmol/M cells: 0.27 nmol/M cells
  PE 40:6, Mean nmol/M cells: 0.17 nmol/M cells
  PI 34:1, Mean nmol/M cells: 0.25 nmol/M cells
  PI 34:2, Mean nmol/M cells: 0.17 nmol/M cells
  PI 36:1, Mean nmol/M cells: 0.80 nmol/M cells
  PI 36:2, Mean nmol/M cells: 0.73 nmol/M cells
  PI 38:2, Mean nmol/M cells: 0.18 nmol/M cells
  PI 38:3, Mean nmol/M cells: 0.26 nmol/M cells
  PI 38:4, Mean nmol/M cells: 0.46 nmol/M cells
  PI 38:5, Mean nmol/M cells: 0.12 nmol/M cells
WM164 cells [6]; WM164, 3µM cTI_100d
  PC 30:0, Mean nmol/M cells: 0.74 nmol/M cells
  PC 30:1, Mean nmol/M cells: 0.44 nmol/M cells
  PC 32:0, Mean nmol/M cells: 0.42 nmol/M cells
  PC 32:1, Mean nmol/M cells: 3.17 nmol/M cells
  PC 32:2, Mean nmol/M cells: 0.42 nmol/M cells
  PC 34:1, Mean nmol/M cells: 5.27 nmol/M cells
  PC 34:2, Mean nmol/M cells: 2.18 nmol/M cells
  PC 36:1, Mean nmol/M cells: 0.90 nmol/M cells
  PC 36:2, Mean nmol/M cells: 2.89 nmol/M cells
  PE 32:1, Mean nmol/M cells: 0.26 nmol/M cells
  PE 34:1, Mean nmol/M cells: 1.09 nmol/M cells
  PE 34:2, Mean nmol/M cells: 1.08 nmol/M cells
  PE 36:1, Mean nmol/M cells: 1.00 nmol/M cells
  PE 36:2, Mean nmol/M cells: 2.05 nmol/M cells
  PE 36:3, Mean nmol/M cells: 0.26 nmol/M cells
  PE 38:4, Mean nmol/M cells: 0.33 nmol/M cells
  PE 38:5, Mean nmol/M cells: 0.35 nmol/M cells
  PE 40:6, Mean nmol/M cells: 0.19 nmol/M cells
  PI 34:1, Mean nmol/M cells: 0.48 nmol/M cells
  PI 34:2, Mean nmol/M cells: 0.30 nmol/M cells
  PI 36:1, Mean nmol/M cells: 1.26 nmol/M cells
  PI 36:2, Mean nmol/M cells: 1.19 nmol/M cells
  PI 38:2, Mean nmol/M cells: 0.23 nmol/M cells
  PI 38:3, Mean nmol/M cells: 0.35 nmol/M cells
  PI 38:4, Mean nmol/M cells: 0.61 nmol/M cells
  PI 38:5, Mean nmol/M cells: 0.22 nmol/M cells
WM164 cells [7]
  cell morphology: more elongated and less dendritic
HT144 cells [8]
  cell morphology: remained unchanged

— doi:10.1101/2022.10.27.513961v1 (bioRxiv, 2022)
